The results in this text go back to a melting point compilation (Tetko et al.).

Regarding `COc1ccc(-c2nnc(S)o2)cc1OC`, the melting point (usually the temperature of the solid-liquid transition) was in the range of 251 to 253 °C.
Under `Clc1cc(-n2cccn2)ccn1` stands 111 to 113 °C; under `Cc1nn2c(=S)nc3ccccc3c2[nH]1`, 291 to 293 °C; under `O=C(O)/C=C/c1cn(Cc2ccccc2Cl)nc1-c1ccccc1`, 148 to 150 °C.
To `Cc1cc(N)n(-c2cccc(C(F)(F)F)c2)n1` belongs 88 to 92 °C; to `NS(=O)(=O)c1ccc(CC(=O)O)s1`, 128 to 130 °C; to `Cc1ccc(N2CCOC2=O)cc1N`, 124 to 126 °C.
Under `O=C(O)c1cccc(S(=O)(=O)NCc2ccco2)c1` stands 190 to 192 °C; under `N#Cc1cccc(OCCBr)c1`, 36 to 38 °C.
The molecule `NNC(=O)NC1CCCC1` had a melting point of 124 to 126 °C.
To `Cc1[nH]c(-c2ccccn2)nc(=NN)c1C` belongs 182 to 184 °C; to `Cc1cc(C)c2oc(N)nc2c1`, 197 to 199 °C.
Under `Cc1ccc(N)c(OCC(=O)N(C)C)c1` stands 83 to 85 °C; under `O=[N+]([O-])c1cnccc1S`, 109 to 111 °C.
To `Nc1ncc(Cc2ccc(Cl)c(C(F)(F)F)c2)s1` belongs 70 to 72 °C; to `O=C(O)c1ccc(SCc2ccccc2)cc1`, 184 to 186 °C; to `NC(C(=O)O)(c1ccccc1F)C(F)(F)F` (stereo not given), 113 to 115 °C.
On to `O=C(O)Cn1c(=O)[nH]c2ccccc21`, for which the melting point fell in the range of 247 to 249 °C.
To `COc1ccc(-n2c(C)cc(C=O)c2C)cc1` belongs 133 to 135 °C.
Under `O=C(O)c1ccc(-c2cccc(C(F)(F)F)c2)cc1F` stands 208 to 210 °C; under `Nc1nnc(CC2CCCCC2)s1`, 250 to 252 °C; under `COc1ccc(C=CC(=O)O)cc1S(=O)(=O)N1CCOCC1`, 238 to 240 °C.
`Nc1cc(Cl)c(Cl)cn1` gave a melting point of 140 to 142 °C.
Under `COc1ccccc1-c1nnc(CCl)o1` stands 86 to 88 °C.
Regarding `Cn1cnnc1S(=O)(=O)O`, the melting point lay in the range of 170 to 172 °C.
Under `OC1CCNCc2ccccc21` (stereo not given) stands 139 to 141 °C.
To `CSCCC(NC(=O)c1ccccc1Br)C(=O)O` (stereo not given) belongs 171 to 173 °C; to `Cc1cc(C)c2c(C)c(C(=O)O)sc2n1`, 278 to 280 °C.
`Cc1ccccc1N1C(=O)c2ccc(C(=O)O)cc2C1=O`: the melting point was in the range of 234 to 236 °C.
Consider `OCc1nc(Cc2ccc(F)cc2)no1`, for which the melting point fell in the range of 53 to 55 °C.
Under `CCC(CC)c1nnc(N)s1` stands 158 to 160 °C; under `CC(O)c1nc2ccccc2n1C` (stereo not given), 111 to 113 °C.
For the molecule `CC(=O)c1cc(C#N)c(S)nc1C`, the melting point was in the range of 127 to 129 °C.
To `O=C(O)C1CCCN(c2nc3ccccc3s2)C1` (stereo not given) belongs 166 to 168 °C; to `COC(=O)c1ccc(C(=O)O)o1`, 194 to 196 °C.
For `COC(=O)c1ccc(C)c(NC(=O)CCl)c1`, the melting point is 135 to 137 °C.
The molecule `Nc1sc2c(c1C(=O)c1ccccc1)CCCC2` gave a melting point of 123 to 127 °C.
The molecule `COc1cc(Br)cc([N+](=O)[O-])c1` returned a melting point of 86 to 88 °C.
In the case of `CSc1ccc(C=CC(=O)O)cc1`, the melting point fell in the range of 177 to 179 °C.
Under `O=C(O)C1CC2COCC(C1)C2=O` (stereo not given) stands 196 to 198 °C; under `NC(C(=O)O)c1ccccc1F` (stereo not given), 229 to 231 °C.
Under `O=Cc1cnc(N2CCOCC2)nc1` stands 147 to 149 °C; under `O=C(O)c1ccc2nc(Cl)ccc2c1`, 228 to 230 °C; under `O=C(O)c1cc(N2CCNC2=O)ccc1F`, 319 to 321 °C.
To `CC1(c2ccc(I)cc2)NC(=O)NC1=O` (stereo not given) belongs 265 to 267 °C; to `Clc1ccc2nccn2n1`, 114 to 116 °C; to `N#Cc1ccc(S(=O)(=O)CCCl)cc1`, 116 to 118 °C.
For the molecule `N#CCC(=O)c1ccc2c(c1)OCO2`, the melting point is 134 to 136 °C.
Under `CC(C)(C)OC(=O)Nc1ccc(C(=O)O)c(O)c1` stands 158 to 160 °C; under `O=C(O)Cc1cccc(OCc2cccc(Cl)c2)c1`, 94 to 96 °C; under `COc1ccc(S(=O)(=O)N2CCCCC2)cc1NC(=O)CCl`, 115 to 130 °C.
Under `CC(C)(C)OC(=O)N1CCN(c2ccc(Cl)nn2)CC1` stands 162 to 164 °C; under `COc1cccc(-c2nn(Cc3ccccc3)cc2C(=O)O)c1`, 174 to 176 °C.
As to `Clc1ncnc2c1CCCCC2`, the melting point fell in the range of 50 to 52 °C.
Take `Sc1nnc(-c2ccncc2)[nH]1`: the melting point is 308 to 313 °C.
To `CS(=O)(=O)Nc1cccc(C#N)c1` belongs 154 to 156 °C.
Take `CC(C)(C)OC(=O)NC1(C(=O)O)Cc2ccccc2C1`: the melting point fell in the range of 162 to 164 °C.
The molecule `CC(C)(Cc1cccc(Cl)c1)C(=O)O` registered a melting point of 56 to 58 °C.
To `[N-]=[N+]=NC(C(N)=O)c1ccc(F)cc1` (stereo not given) belongs 127 to 129 °C; to `O=C(O)c1[nH]nc2cc(OC(F)(F)F)ccc12`, 261 to 263 °C.
Regarding `CCOC(=O)c1oc2ccc(Br)cc2c1C`, the melting point was in the range of 89 to 91 °C.
Turning to `Cc1nc(-c2ccc(S(N)(=O)=O)cc2)co1`, the melting point lay in the range of 245 to 247 °C.
To `CCC(Cc1ccccc1Br)C(=O)O` (stereo not given) belongs 67 to 69 °C; to `Nc1onc(-c2ccco2)c1-c1ccc2c(c1)OCO2`, 138 to 140 °C; to `O=C(CO)Nc1cccc([N+](=O)[O-])c1`, 182 to 184 °C.
Under `Clc1cc2ccccc2c(Cl)n1` stands 100 to 102 °C; under `COc1ccccc1-n1c(C)nnc1SCC(=O)O`, 169 to 171 °C.
Under `O=C(O)c1cccnc1Oc1cccnc1` stands 190 to 192 °C; under `O=C(O)c1cc(-c2ccccn2)ccc1Cl`, 215 to 217 °C; under `Nc1ncccc1OCc1cccc(Cl)c1`, 84 to 86 °C.
In turn, `CC1CCN(c2cc(C(=O)O)ccn2)C1` (stereo not given) came in with a melting point of 195 to 197 °C.
In the case of `CN(CC(=O)N1CCOCC1)C(=O)CCl`, the melting point fell in the range of 75 to 77 °C.
`COC(=O)c1ccc(-c2nc(C)cs2)cc1` showed a melting point of 81 to 83 °C.
To `CCOC(=O)CN(C(=O)CCl)c1ccccc1` belongs 130 to 135 °C; to `O=S(=O)(Cl)c1cc(Br)cnc1Cl`, 61 to 63 °C; to `CCOc1ccc(OC(C)(C)C(=O)O)cc1`, 66 to 68 °C.
To `Cn1ncc2c(O)c(C(=O)O)cnc21` belongs 193 to 195 °C.
In turn, `COC(=O)C(Cl)c1cc(Cl)cc(Cl)c1` (stereo not given) displayed a melting point of 56 to 58 °C.
Under `O=C(O)c1ccc2nnc(C(F)F)n2c1` stands 278 to 280 °C; under `O=C(O)CNC(=O)OCC(F)(F)F`, 98 to 100 °C.
The molecule `ClCc1cn(-c2ccc(Cl)c(Cl)c2)nn1` came in with a melting point of 138 to 140 °C.
To `Cc1cccnc1C(=O)NN` belongs 76 to 78 °C.
Consider `O=C(O)C=Cc1cccc(CO)c1`, for which the melting point was 129 to 131 °C.
Consider `O=C(O)C1CCCN(C(=O)Nc2ccccc2)C1` (stereo not given), for which the melting point was in the range of 163 to 165 °C.
The molecule `O=c1[nH]ccs1` came in with a melting point of 55 to 57 °C.
Molecule `CC(=O)c1cccc(NC(=O)OCC(F)(F)F)c1` registered a melting point of 135 to 137 °C.
With `Cn1c(C=O)nc2ccccc21`, the melting point is 119 to 122 °C.
With `N#Cc1ccc(CCC(=O)O)cc1`, the melting point is 137 to 139 °C.
Under `NC1CN(S(=O)(=O)c2ccc3c(c2)OCCO3)C1` stands 124 to 126 °C; under `CCCCCC(=O)Nc1cc(OC)c(OC)cc1C(=O)O`, 178 to 180 °C; under `O=C(O)C1(c2ccc(F)cc2F)CCC1`, 64 to 66 °C.
Under `CCC(=CC(=O)O)c1ccc(C)cc1` stands 116 to 118 °C; under `CCOc1ccc(S(=O)(=O)NN)cc1`, 114 to 116 °C; under `CCCCCc1sc(N)c(C(N)=O)c1C`, 129 to 131 °C.
In turn, `O=C(CCl)NC1CCN(Cc2ccccc2)CC1` had a melting point of 117 to 119 °C.
The molecule `c1ccc(OC2CCNCC2)cc1` registered a melting point of 34 to 36 °C.
In the case of `O=C(Nc1ccc(F)cc1)c1ccc2c(c1)OCO2`, the melting point lay in the range of 186 to 188 °C.
`COC(C)c1nc(C)c(C(=O)O)s1` (stereo not given): the melting point is 126 to 128 °C.
The molecule `O=C(O)CS(=O)Cc1ccc(Br)cc1` (stereo not given) registered a melting point of 141 to 143 °C.
Under `O=c1[nH]c(-c2ccncc2)cs1` stands 303 to 305 °C; under `Cc1cc(Cl)c(N)cc1Cl`, 86 to 88 °C; under `COc1ccccc1C(NC(=O)OC(C)(C)C)C(N)=NO` (stereo not given), 185 to 187 °C.
As for `CC1=NS(=O)(=O)NC(C)=C1CCC(=O)O`, the melting point lay within 162 to 164 °C.
`COc1ccc(C(=O)CNC(=O)CCC(=O)O)cc1` had a melting point of 167 to 169 °C.
`OCc1cccc2cn[nH]c12` displayed a melting point of 201 to 203 °C.
Under `Cc1onc(-c2cccc(Br)c2)c1C(=O)O` stands 169 to 171 °C; under `O=C(O)c1ccc2c(c1)C(=O)N(Cc1ccco1)C2=O`, 172 to 176 °C; under `CCOc1ccccc1-n1nnnc1SCC(=O)O`, 145 to 147 °C.
`Cc1ccc(S(=O)(=O)C2(C(=O)O)CCC2)cc1` yielded a melting point of 105 to 107 °C.
Turning to `O=C(NC(Cc1ccccc1)C(=O)O)c1cccs1` (stereo not given), the melting point is 202 to 204 °C.
Under `CC(C)(C)OC(=O)N1CC2CNCC2C1` (stereo not given) stands 29 to 31 °C; under `O=C(O)C1(c2ccc(Cl)cc2)CCOCC1`, 181 to 183 °C; under `COC(=O)c1cc([N+](=O)[O-])c(F)cc1Cl`, 59 to 61 °C.
In turn, `Cc1cc(CSc2ncccc2C(=O)O)no1` displayed a melting point of 169 to 171 °C.
Consider `O=C(COc1ccc2c(c1)CCC2)c1ccc(Cl)c(Cl)c1`, for which the melting point fell in the range of 89 to 91 °C.
Under `COc1cc(C=CC(=O)O)ccc1OCC#N` stands 164 to 166 °C.
Under `COCCNc1ccc(C(F)(F)F)cn1` stands 77 to 79 °C.
Turning to `Nc1nc2ccc(S(=O)(=O)N3CCCC3)cc2s1`, the melting point lay within 225 to 227 °C.
To `NNC(=O)c1cccc(S(=O)(=O)Nc2ccc(Cl)cc2)c1` belongs 191 to 193 °C.
Take `O=[N+]([O-])c1cccc(-c2nccs2)c1`: the melting point is 238 to 240 °C.
